Reference: patent US9528155B2, “In vitro method for determining immunotoxicity of a compound” (UNIVERSITEIT MAASTRICHT, priority 2012, dated 2016)
Read-outs that look alike come from different tables or passages of the source.

Columns and labels:
Format in all cases: cell-based, human
CHAC1 = experiment: Fluidigm multiplex real-time quantitative PCR of marker gene CHAC1 in exposed Jurkat cells
ABCA1 = experiment: Fluidigm multiplex real-time quantitative PCR of marker gene ABCA1 in exposed Jurkat cells
HMGCS1 = experiment: Fluidigm multiplex real-time quantitative PCR of marker gene HMGCS1 in exposed Jurkat cells
CRIM1 = experiment: Fluidigm multiplex real-time quantitative PCR of marker gene CRIM1 in exposed Jurkat cells
[1] = Jurkat cells, 6 h exposure at sub-cytotoxic exposure conc. of Tables 1/2, vs vehicle control, N=3, below -1.0 = underexpression

| Compound | Expression levels of marker genes upon exposure: CHAC1 (Fold Change) (CHAC1) | Expression levels of marker genes upon exposure: ABCA1 (Fold Change) (ABCA1) | Expression levels of marker genes upon exposure: HMGCS1 (Fold Change) (HMGCS1) | Expression levels of marker genes upon exposure: CRIM1 (Fold Change) (CRIM1) | Expression levels of marker genes upon exposure: HMGCS1 (Fold Change) (HMGCS1; [1]) | Expression levels of marker genes upon exposure: CRIM1 (Fold Change) (CRIM1; [1]) | Expression levels of marker genes upon exposure: CHAC1 (Fold Change) (CHAC1; [1]) | Expression levels of marker genes upon exposure: ABCA1 (Fold Change) (ABCA1; [1]) |
| --- | --- | --- | --- | --- | --- | --- | --- | --- |
| CCCCC(CC)COC(=O)c1ccccc1C(=O)O (stereo not shown) [MEHP, mono-(2-ethylhexyl) phthalate] | 3.5 ± 2.1 | −1.2 ± 0.1 | 1.6 ± 0.9 | −1 ± 0.6 |  |  |  |  |
| O=[N+]([O-])c1ccc2ccc3cccc4ccc1c2c34 [1-NPR, 1-Nitropyrene] |  | 1.3 ± 1.2 |  | 1.3 ± 1.6 |  |  |  |  |
| CCCCC(CC)COC(=O)c1ccccc1C(=O)OCC(CC)CCCC (stereo not shown) [DEHP, Bis(2-ethylhexyl)phthalate] |  |  |  |  | 1.2 ± 0.1 | 1.9 ± 1.5 |  |  |
| CCOC(N)=O [urethane] |  |  |  |  | 1.2 ± 0.3 | 1.1 ± 0.5 | 1.2 ± 0.4 |  |
| Cn1cnc([N+](=O)[O-])c1Sc1ncnc2nc[nH]c12 [AZA, azathioprine] |  |  |  |  | 1.1 ± 0.2 | 1.8 ± 1.0 | 2.3 ± 2.1 |  |
| O=[N+]([O-])[O-].[Ag+] [AgNO3, silver nitrate] |  |  |  |  | 1.6 ± 0.9 | 1.1 ± 0.3 | −1.1 ± 0.5 | 1.5 ± 1.2 |
| C[C@@H]1Cc2c(Cl)cc(C(=O)N[C@@H](Cc3ccccc3)C(=O)O)c(O)c2C(=O)O1 [OTA, ochratoxin A] |  |  |  |  | −2.5 ± 0.1 | −1.3 ± 0.1 | 32.9 ± 14.5 | −2.2 ± 0.1 |
| O=S(=O)(O)C(F)(F)C(F)(F)C(F)(F)C(F)(F)C(F)(F)C(F)(F)C(F)(F)C(F)(F)F [PFOS] | 1.8 ± 1.5 | −4.3 ± 0.2 | −1.1 ± 0.2 | −1.5 ± 0.4 |  |  |  |  |
| CN(C)N=O [DMNA, dimethylnitrosamine] | −1.5 ± 1.5 | −1.8± | 1.2 ± 1.1 | −12 ± 1.5 |  |  |  |  |
| CCC(=O)Nc1ccc(Cl)c(Cl)c1 [PROP, N-(3,4-Dichloro-phenyl)propanamide] |  |  |  |  |  | 1.4 ± 0.1 |  | 1.3 ± 1 |
| ochratoxin A, S9-treated [OTA S9] |  |  |  |  | 2.0 ± 1.0 | −1.1 ± 0.5 | −13.8 ± 0.0 | 1.3 ± 1.8 |
| CCO [EtOH, ethanol] |  |  |  |  |  |  | 34.3 ± 2.3 | 1.2 ± 1.0 |
| COc1c(C)c2c(c(O)c1C/C=C(\C)CCC(=O)O)C(=O)OC2 [MPA, mycophenolic acid] |  |  |  |  |  |  | 1.5 ± 0.9 | 1.1 ± 0.7 |
| C[C@]12C=CC(=O)C=C1CC[C@@H]1[C@@H]2[C@@H](O)C[C@@]2(C)[C@H]1CC[C@]2(O)C(=O)CO [PRD, prednisolone] |  |  |  |  | 1.7 ± 0.1 | 3.9 ± 0.6 | 2.7 ± 1.9 | 1.0 ± 0.6 |
| O=P1(N(CCCl)CCCl)NCCCO1 (stereo not shown) [CP S9, cyclophosphamide] |  |  |  |  | 2.0 ± 1 | 1.1 ± 0.3 |  | 1.9 ± 1.6 |
| CC1(C)S[C@@H]2[C@H](NC(=O)[C@H](N)c3ccccc3)C(=O)N2[C@H]1C(=O)O [AMP, ampicillin] |  |  |  |  | 1.4 ± 0.3 | 1.2 ± 1.1 |  |  |
| Cl[C@H]1[C@H](Cl)[C@@H](Cl)[C@@H](Cl)[C@H](Cl)[C@H]1Cl [LIN, Gamma-hexachlorocyclohexane] |  |  |  |  | −2.4 ± 0 | 2.3 ± 0.1 | 10.2 ± 7.6 | 3.4 ± 3.6 |
| OC[C@@H](O)[C@@H](O)[C@H](O)[C@H](O)CO [MANNITOL] |  |  |  |  | 1.2 ± 0.3 | 1.1 ± 0.7 |  |  |
| Sc1ncnc2nc[nH]c12 [6MP, 6-mercaptopurine] |  |  |  |  |  | 1.0 ± 0.6 | 1.8 ± 1.1 |  |
| Cn1c(N)nc2c3cccnc3ccc21 [IQ, 2-amino-3-methyl-3H-imidazo[4,5-F]quinoline] |  | 1.0 ± 2.2 |  | 1.1 ± 1.8 |  |  |  |  |
| [Cl][Cd][Cl] [CdCl2, cadmium dichloride] |  |  |  |  | 2.2 ± 1.3 | 4.3 ± 2.0 | 7.0 ± 1.5 | 1.3 ± 1.3 |
| C=CC(=O)NCNC(=O)C=C [MBA, N,N′-methylenebisacrylamide] | 1.5 ± 2.1 |  | 1.0 ± 1.1 | 1.1 ± 1.9 |  |  |  |  |
| Clc1cc(Cl)c(-c2cc(Cl)c(Cl)cc2Cl)cc1Cl [PCB153, polychlorinated biphenyl 153] | 1.2 ± 3 | 1.1 ± 1.4 | 2.0 ± 1.2 | −1.2 ± 2.2 |  |  |  |  |
| CN(Cc1cnc2nc(N)nc(N)c2n1)c1ccc(C(=O)N[C@@H](CCC(=O)O)C(=O)O)cc1 [MTX, methotrexate] |  |  |  |  |  | 1.4 ± 1.1 |  |  |
| arsenic trioxide [As2O3] |  |  |  |  | −1.1 ± 0.2 | 2.4 ± 1.1 | 41.2 ± 32.5 | 1.4 ± 0.3 |
| CC1=C[C@H]2O[C@@H]3[C@H](O)C[C@](C)([C@@]2(CO)[C@H](O)C1=O)[C@]31CO1 [DON, deoxynivalenol] |  |  |  |  | −1.5 ± 0.3 | 1.4 ± 0.4 | −1.4 ± 0.4 | −1.9 ± 0.2 |
| tributyltin oxide [TBTO] |  |  |  |  | −1.5 ± 0.1 | −1.1 ± 0.8 | −1.1 ± 0.4 | 30.9 ± 8.5 |
| C[C@@H]1C[C@H]2[C@@H]3CCC4=CC(=O)C=C[C@]4(C)[C@@]3(F)[C@@H](O)C[C@]2(C)[C@@]1(O)C(=O)CO [DEX, dexamethasone] |  |  |  |  | 1.0 ± 0.1 | 1.4 ± 0.6 |  |  |
